The source of these data is patent publication US5198433A, “Lactamimides as calcium antagonists” (Merrell Dow Pharmaceuticals Inc., priority 1992, dated 1993).

One may read the IC50 as the midpoint of a concentration-inhibition curve. Broadly, the pKi is −log10 of the Ki, conventionally taken in molar units.

The target in experiment [1] is [^3 H]d-cis-diltiazem binding to rat whole brain membranes (calcium ion-channel protein). The experiment can be described thus: [^3 H]d-cis-Diltiazem binding assay (displacement from rat whole brain membranes). The arrangement: species or system rat (male Sprague-Dawley). As to conditions: for IC50: ligand […]. As to the method: The whole brain from male Sprague-Dawley rats (200-300 g) was dissected and homogenized in cold 50 mM Tris-HCl buffer (pH 7.4) for 2 x 30 second periods by Polytron (Brinkmann, setting No. 5). The homogenate was washed 2 times (48,000 ×g for 10 minutes, 4° C.) with intermittent resuspension of the pellet in fresh buffer. The final pellet was resuspended to an original tissue concentration of 100 mg/ml in Tris-HCl buffer. […] The reaction was terminated by rapid filtration under a vacuum through 0.05% polyethylenimine-pretreated Whatman GF/B glass fiber filters. Filters were immediately washed 2 times with 4 ml of cold Tris-HCl buffer. Pretreatment of the filters with 0.05% polyethylenimine served to eliminate [^3 H]d-cis-diltiazem binding to the filter. The filters were dried and the radioactivity in the filters was extracted overnight in scintillation fluid.

Experiment [2] deals with T1, [^3 H]nitrendipine binding to rat heart membranes (calcium ion-channel protein) (Rattus norvegicus, UniProt P22002).
T1 construct: Membranes were prepared from the hearts of male Sprague-Dawley rats; from tissue; host or cells: heart membranes of male Sprague-Dawley rats
T1 sequence (P22002 whole entry, other chains not shown): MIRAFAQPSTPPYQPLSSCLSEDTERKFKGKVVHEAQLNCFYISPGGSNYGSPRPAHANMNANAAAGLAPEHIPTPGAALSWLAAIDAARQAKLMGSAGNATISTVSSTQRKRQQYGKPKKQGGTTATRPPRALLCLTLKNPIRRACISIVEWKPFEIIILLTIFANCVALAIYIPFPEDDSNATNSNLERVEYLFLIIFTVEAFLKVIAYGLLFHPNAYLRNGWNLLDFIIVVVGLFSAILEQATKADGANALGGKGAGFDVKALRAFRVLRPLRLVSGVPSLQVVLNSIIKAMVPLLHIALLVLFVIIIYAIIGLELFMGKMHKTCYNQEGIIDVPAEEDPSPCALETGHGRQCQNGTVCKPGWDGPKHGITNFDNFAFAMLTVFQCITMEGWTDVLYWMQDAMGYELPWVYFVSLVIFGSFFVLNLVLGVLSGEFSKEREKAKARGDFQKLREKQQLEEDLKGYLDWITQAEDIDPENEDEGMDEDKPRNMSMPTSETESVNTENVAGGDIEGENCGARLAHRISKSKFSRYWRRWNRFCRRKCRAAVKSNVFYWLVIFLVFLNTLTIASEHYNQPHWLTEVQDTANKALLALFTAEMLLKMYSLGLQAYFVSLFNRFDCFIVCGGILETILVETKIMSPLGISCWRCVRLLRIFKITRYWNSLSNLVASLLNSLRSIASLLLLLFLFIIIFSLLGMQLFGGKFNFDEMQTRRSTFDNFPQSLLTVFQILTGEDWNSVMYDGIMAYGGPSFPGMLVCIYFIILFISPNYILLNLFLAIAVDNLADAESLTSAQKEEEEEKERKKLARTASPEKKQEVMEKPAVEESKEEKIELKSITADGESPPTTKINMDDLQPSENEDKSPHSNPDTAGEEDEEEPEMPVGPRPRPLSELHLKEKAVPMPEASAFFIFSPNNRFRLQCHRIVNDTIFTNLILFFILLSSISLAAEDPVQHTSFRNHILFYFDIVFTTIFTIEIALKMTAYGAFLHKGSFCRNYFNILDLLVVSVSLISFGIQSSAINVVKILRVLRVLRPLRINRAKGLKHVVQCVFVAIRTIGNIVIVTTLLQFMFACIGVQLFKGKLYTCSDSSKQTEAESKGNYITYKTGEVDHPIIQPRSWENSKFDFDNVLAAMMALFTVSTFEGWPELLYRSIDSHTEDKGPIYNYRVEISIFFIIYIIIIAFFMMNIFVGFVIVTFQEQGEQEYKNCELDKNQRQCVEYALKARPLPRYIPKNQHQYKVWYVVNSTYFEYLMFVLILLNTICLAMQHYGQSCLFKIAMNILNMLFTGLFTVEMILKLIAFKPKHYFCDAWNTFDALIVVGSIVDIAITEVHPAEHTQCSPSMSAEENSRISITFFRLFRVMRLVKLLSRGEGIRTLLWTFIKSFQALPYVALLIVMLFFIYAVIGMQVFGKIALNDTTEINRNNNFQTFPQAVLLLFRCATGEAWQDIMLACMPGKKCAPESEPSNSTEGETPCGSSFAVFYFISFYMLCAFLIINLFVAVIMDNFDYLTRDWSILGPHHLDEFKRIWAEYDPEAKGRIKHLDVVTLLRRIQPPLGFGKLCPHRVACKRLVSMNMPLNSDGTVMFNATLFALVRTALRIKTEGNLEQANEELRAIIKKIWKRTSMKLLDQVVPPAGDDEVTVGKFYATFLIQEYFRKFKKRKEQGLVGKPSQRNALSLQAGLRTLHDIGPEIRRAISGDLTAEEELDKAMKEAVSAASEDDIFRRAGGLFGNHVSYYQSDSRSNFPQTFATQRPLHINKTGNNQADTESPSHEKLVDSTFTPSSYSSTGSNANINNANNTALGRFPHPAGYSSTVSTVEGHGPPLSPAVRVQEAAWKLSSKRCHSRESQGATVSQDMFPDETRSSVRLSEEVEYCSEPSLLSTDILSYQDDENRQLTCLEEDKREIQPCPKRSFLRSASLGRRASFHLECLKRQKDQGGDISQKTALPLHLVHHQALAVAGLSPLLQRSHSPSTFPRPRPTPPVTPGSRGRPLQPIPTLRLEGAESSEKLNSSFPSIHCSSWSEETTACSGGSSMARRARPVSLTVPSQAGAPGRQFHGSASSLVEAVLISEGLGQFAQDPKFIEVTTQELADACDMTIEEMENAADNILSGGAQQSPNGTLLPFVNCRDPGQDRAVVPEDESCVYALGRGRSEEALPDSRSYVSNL
T1 sequence (P54290 25-945 partner limits assumed, other chains not shown): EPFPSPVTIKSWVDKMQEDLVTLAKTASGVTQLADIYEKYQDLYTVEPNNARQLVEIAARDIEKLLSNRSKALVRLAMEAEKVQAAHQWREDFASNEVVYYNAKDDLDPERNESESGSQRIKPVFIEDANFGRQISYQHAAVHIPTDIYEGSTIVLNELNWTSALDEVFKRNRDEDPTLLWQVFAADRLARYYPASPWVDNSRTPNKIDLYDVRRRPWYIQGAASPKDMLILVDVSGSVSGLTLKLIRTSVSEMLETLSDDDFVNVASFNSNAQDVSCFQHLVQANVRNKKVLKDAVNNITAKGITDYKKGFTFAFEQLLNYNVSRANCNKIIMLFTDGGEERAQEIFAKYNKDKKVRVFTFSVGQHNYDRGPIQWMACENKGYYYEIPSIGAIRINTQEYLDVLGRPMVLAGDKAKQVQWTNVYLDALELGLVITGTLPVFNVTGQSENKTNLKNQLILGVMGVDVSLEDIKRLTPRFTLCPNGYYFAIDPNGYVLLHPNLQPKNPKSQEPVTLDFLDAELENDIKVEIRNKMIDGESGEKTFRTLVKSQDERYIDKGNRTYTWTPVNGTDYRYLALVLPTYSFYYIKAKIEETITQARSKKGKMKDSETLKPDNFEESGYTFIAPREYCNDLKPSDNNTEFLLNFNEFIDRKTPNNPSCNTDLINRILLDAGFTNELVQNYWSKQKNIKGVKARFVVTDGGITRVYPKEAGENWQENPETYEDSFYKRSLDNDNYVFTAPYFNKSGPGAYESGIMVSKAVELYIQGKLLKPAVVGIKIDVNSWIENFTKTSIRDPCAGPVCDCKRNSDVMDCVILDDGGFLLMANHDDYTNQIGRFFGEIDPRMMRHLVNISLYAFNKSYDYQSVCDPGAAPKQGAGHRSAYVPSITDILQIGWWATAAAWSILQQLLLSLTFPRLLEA
T1 sequence (P54290 946-1091 partner limits assumed, other chains not shown): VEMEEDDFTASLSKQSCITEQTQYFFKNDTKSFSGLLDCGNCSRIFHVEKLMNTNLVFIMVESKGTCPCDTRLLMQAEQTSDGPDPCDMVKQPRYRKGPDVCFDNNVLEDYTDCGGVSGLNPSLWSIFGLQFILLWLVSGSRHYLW
As to the kind of experiment: [^3 H]Nitrendipine binding assay (enhancement of binding to rat heart membranes). Set-up: species or system rat (male Sprague-Dawley). As to conditions: ligand 0.1 nM, mean ± SEM; for activity at 1 µM: 10^-6 M; for activity at 0.1 µM: 10^-7 M. The procedure:
Membranes were prepared from the hearts of male Sprague-Dawley rats and [^3 H]nitrendipine binding was conducted as described in detail by H. R. Lee, et al., J. Pharmacol Exp. Ther. 233:611-616, (1985), as modified by F. J. Ehlert, et al., Biochem. Biophys. Rec. Common. 104:937-943, (1982). The ability of compounds tested at 10^-6 and 10^-7 M to enhance [^3 H]nitredepine binding was taken as indicative of diltiazem-like calcium antagonistic properties.
Values are the mean ± SEM of single experiments run in triplicate at
the concentrations of drugs indicated. Ligand concentration was 0.1 nM an
control specific binding was 49.6 ± 1.7 fmol/mg protein.

Experiment [3] addresses T2, K^+ -depolarized guinea pig ileum or taenia (Cavia porcellus).
T2 construct: pieces of ileum, 2 cm in length, from male guinea pigs (200-400 g) were set up in isolated organ baths; from tissue; host or cells: strips of taenia from the caecum or pieces of ileum of male guinea pigs
As to the kind of experiment: Antagonism of Ca^++ -induced contractions of K^+ -depolarized guinea pig taenia or ileum. The experiment is classed as cell-based. Conditions: FIG. 6; 40 mM K^+ -depolarized guinea pig ileum. The procedure: Strips of taenia from the caecum or pieces of ileum, 2 cm in length, from male guinea pigs (200-400 g) were set up in isolated organ baths in Ca^++ -free K^+ Tyrode's solution (mM NaCl 137, KCl 40, NaH2 PO4 0.4, NaHCO3 11.9, glucose 5.5) and gassed with 95% O2, 5% CO2 at 37° C. Contractions were measured with isotonic transducers with a 1 g load. Cumulative dose-response curves were obtained. Tissues were then washed and incubated with the compounds for 20-25 minutes and then Ca^++ concentration response curves re-established. […] Dose ratios were determined graphically at ED50 values from the Ca^++ dose-response curve and Schild plots were constructed to determine pA2 value using inverse regression line analysis. Alternatively, when only one concentration of an antagonist was used, pA2 values were calculated according to the method of J. M. Van Rossum, Arch. Int. Pharmacodyn Ther. 143: 299-330 (1963).

The test system of experiment [4] is [3H]nitrendipine binding in rat cerebral cortical and cardiac homogenates. As to conditions: cited from earlier work.
The subject of a further experiment is adenylate cyclase. As to conditions: a number of tissues; cited from earlier work.
Experiment [5] concerns isolated guinea pig hearts. Conditions: cited from earlier work.
The test system of another experiment is calcium currents. As to conditions: potency compared with diltiazem; cited from earlier work.

Turning to `c1ccc([C@H]2CCC[C@H]2N=C2CCCCCCCCCCCN2)cc1` (relative stereo) [Test Compound 3, 2-[(cis-2-phenylcyclopentyl)imino]azacyclotridecane], the IC50 in experiment [1] (25° C.) was found to be 0.28 ± 0.03 µM. Further, the IC50 in experiment [1] (37° C.) came out at 0.403 ± 0.077 µM. In addition, in experiment [1] (Table 1, displacement of 3H diltiazem, rat brain membranes, 25° C., n = 3, Cheng & Prusoff), the pKi was 6.41. Further, in experiment [2] (25° C.), the activity at 1 µM was determined as 112 ± 2% and the activity at 0.1 µM amounted to 102 ± 1%. For the same compound, in experiment [2] (37° C.), the activity at 1 µM was found to be 165 ± 13% and the activity at 0.1 µM is 141 ± 8%. Further, in experiment [3], the “mean pA2 value (95% confidence interval), Schild plot” value was 6.66 (6.31-7.44) and the “mean slope (±S.D.) of Schild plot” value is on record as 0.89 (0.16). Moreover, in experiment [4], the “effect on [3H]nitrendipine binding” value is “enhanced [3H]nitrendipine binding in rat cerebral cortical and cardiac homogenates in a similar manner to diltiazem”. The “inhibition of stimulated adenylate cyclase activity” value with adenylate cyclase is “inhibit stimulated adenylate cyclase activity in a number of tissues”. The “reversal of inotropic and chronotropic effects by calcium” value in experiment [5] (administration of calcium) was “reversed by the administration of calcium”. Besides, the “inotropic and chronotropic effects” value in experiment [5] was “negative inotropic and chronotropic effects”. Further, the “effect on calcium currents” value in the experiment on calcium currents was “selectively reduced calcium currents with a potency similar to diltiazem”.
